From patent US20240139138A1, “COMPOSITION OF AND METHOD FOR TREATING INJURY AND/OR SKIN CONDITIONS” (Omeza Holdings, Inc., priority 2022, published 2024) come the findings set out here.

Data set [1] can be described thus: Solubility in anhydrous lipophilic oil composition.
For data set [2], the system named is Methicillin Resistant Staphylococcus aureus MRSA USA300. Put plainly: In-vitro agar well diffusion, zone of bacterial growth inhibition. It is filed as cell-based. Background: Agar diffusion results depend on both activity and mobility in agar.
Protocol: All challenge inoculum suspensions were prepared by swabbing a 3-cm diameter area of the growth from a culture plate into 4.5 ml of sterile phosphate buffer solution (PBS). […] The concentration was confirmed using historical optical density measurements. […] Concentrations of 10^4 CFU/ml for each bacteria was tested in this study.
Three (3) plates of Tryptic soy agar with 5% sheep blood (TSAII) per treatment for each bacteria was challenged with 100 μl of each inoculum 10^4 CFU/ml (MRSA USA300 or PA27312).
Inoculums were spread around each plate using 3 mm sterile glass beads.
Three (10 mm) punch biopsies were made on all inoculated TSAII blood culture media plates and those biopsies were removed with a sterile spatula to create wells on each plate.
Approximately 150-200 μl of each treatment was placed in the well of the inoculated TSA II plates. […] Negative Control Petrolatum or Sterile PBS.
Treatments were allowed to diffuse into agar for approximately 2-3 hours at room temperature prior to incubating plates for 24 hours at 37° C.
After the incubation period, the zones of bacteria growth inhibition (if any) were measured using ImageJ 1.4lo software.
IBM SSPS Statistics Version 26 with ANOVA statistical analysis was used to determine any differences between treatments.
The mark [3] stands for this setting: average of 9 wells, 10^4 CFU/ml.
Setting [4] is: average of 9 wells, 10^4 CFU/ml, ImageJ area.

Take `CCCCCCCCCCCC(=O)OCC(O)CO` (stereo not shown) [monolaurin, glycerol monolaurate]: in data set [1], the “inherent solubility in an oil” value is recorded as “less than or equal to 0.6%”.

Consider `C/C(=C\C(=O)OCCCCCCCCC(=O)O)C[C@@H]1OC[C@H](C[C@@H]2O[C@H]2[C@@H](C)[C@H](C)O)[C@@H](O)[C@H]1O` [Mupirocin], for which the “zone of inhibition, comparison in words” value in data set [2] (MRSA USA300) was “largest zone of inhibition”. Also, in data set [2] (setting [3]), the “Average Inhition in cm2” value was 42.81 cm2 and the “Diameter cm (of average inhibition zone)” value is 7.3849 cm. In data set [2] (setting [4]), the “Average Inhibition Zone vs Each disk” value was 244618.78 and the “Average Inhibition Zone vs disk average” value came to 244618.78. The “areas of inhibition zones” value in data set [2] (mean ± spread, 10^4 CFU/ml MRSA USA300) is given as 42.81±0.29 cm^2.
